Results from paper PMC7932537, “Quantitative profiling of protease specificity” (PLoS Computational Biology, 2021).

Tests used:
MMP-2 [1] = test: Substrate phage display with NGS: relative probability (RP) of P3-P1' tetramer clusters; assay type: biochemical, human; settings: MMP2;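 further: ratio of tetramer probability after protease selection to that in naive phage library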
MMP-9 = MMP-9 (Homo sapiens, UniProt P14780); test: K(obs) of individual phage substrates (set of 1369); assay type: biochemical; settings: MMP9
MMP-9, sequence (P14780 94-707): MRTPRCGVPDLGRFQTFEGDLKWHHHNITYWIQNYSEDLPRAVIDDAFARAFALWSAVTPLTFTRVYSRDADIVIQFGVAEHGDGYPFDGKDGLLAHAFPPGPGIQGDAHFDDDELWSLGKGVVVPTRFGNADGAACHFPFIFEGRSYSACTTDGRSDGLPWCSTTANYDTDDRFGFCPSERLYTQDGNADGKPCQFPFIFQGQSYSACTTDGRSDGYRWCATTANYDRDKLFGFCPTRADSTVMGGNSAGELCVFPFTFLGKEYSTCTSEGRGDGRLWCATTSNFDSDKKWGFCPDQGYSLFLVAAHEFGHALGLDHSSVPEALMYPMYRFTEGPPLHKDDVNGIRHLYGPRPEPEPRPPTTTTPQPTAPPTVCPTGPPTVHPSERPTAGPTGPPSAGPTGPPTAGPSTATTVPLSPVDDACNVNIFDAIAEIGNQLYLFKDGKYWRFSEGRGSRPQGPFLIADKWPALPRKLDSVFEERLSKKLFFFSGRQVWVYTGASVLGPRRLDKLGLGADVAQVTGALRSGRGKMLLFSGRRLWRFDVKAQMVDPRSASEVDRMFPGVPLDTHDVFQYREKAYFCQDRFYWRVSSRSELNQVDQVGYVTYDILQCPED

MMP-2 [2] = biological target: T1, MMP-2 (Homo sapiens, UniProt P08253); test: as above; assay type: biochemical; settings: MMP2
T1 sequence (P08253 110-660): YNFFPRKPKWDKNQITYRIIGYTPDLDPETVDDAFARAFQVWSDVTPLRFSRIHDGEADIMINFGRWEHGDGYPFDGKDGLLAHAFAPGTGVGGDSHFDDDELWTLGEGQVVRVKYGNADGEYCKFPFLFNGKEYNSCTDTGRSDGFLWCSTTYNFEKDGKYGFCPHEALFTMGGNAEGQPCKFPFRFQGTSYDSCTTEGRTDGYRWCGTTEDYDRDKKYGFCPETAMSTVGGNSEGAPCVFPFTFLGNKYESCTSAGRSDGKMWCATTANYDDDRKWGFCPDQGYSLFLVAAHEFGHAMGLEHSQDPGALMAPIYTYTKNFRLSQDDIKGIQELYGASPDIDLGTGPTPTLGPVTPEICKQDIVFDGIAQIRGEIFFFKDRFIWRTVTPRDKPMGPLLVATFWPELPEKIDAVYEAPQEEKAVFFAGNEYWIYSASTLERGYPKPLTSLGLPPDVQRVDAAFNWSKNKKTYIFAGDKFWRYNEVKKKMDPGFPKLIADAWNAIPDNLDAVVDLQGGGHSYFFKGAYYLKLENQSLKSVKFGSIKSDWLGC

[3] = RP of the P3-P1' tetramer contained in the substrate
[4] = individual phage substrate of the set of 1369 peptides, dash in the sequence marks the cleavage position
[5] = individual phage substrate of the set of 1369 peptides, cleavage position marked by '-'
[6] = RP of the P3-P1' tetramer contained in the substrate (substrate phage display with NGS)
[7] = individual phage substrates, set of 1369 peptides, hyphen in sequence marks cleavage position
[8] = individual phage substrates, set of 1369 peptides, cleavage position marked by hyphen in sequence

Kobs (MMP-9; [4]) [M⁻¹ s⁻¹]	Kobs (MMP-2 [2]; [5]) [M⁻¹ s⁻¹]	Kobs (MMP-9; [7]) [M⁻¹ s⁻¹]	Kobs (MMP-2 [2]; [8]) [M⁻¹ s⁻¹]	Substance	relative probability (RP) (MMP-2 [1]; [3])	relative probability (RP) (MMP-2 [1]; [6])
4335.13	7815.03			ARVRH-LTASG	25.4239	
		2687.73	1154.21	TVSYA-LTASG		4.7967
		12792.1	12792.1	GGPSM-LTASG		33.0235
12792.1	5667.28			GTPMQ-LYTAS	27.6586	
		7815.03	2038.8	SGPFY-LRNTA		17.7778
		0	56.119	GQQMS-LRTAS		0.2763
12792.1	4922.1			GDPYS-LRTAS	30.7259	
		0	912.511	HRQQN-LTASG		4.247
		0	1660.66	TRLAH-VTASG		11.7405
12792.1	12792.1			SGPRA-LKGTA	35.2345	
12792.1	9740.44			GFPLM-LTASG	25.0435	
		0	1763.55	GEFRS-MRTAS		5.389
		8941.32	4205.91	AHVFA-LTASG		11.8827
		690.17	990.764	FSLRQ-MTASG		8.677
		619.843	12792.1	VMYGN-LTASG		24.0019
		3165.09	3438.54	RDVLA-LTASG		13.5229
		84.609	3253.29	GSGAS-LQMLT		9.538
		12792.1	10866.7	IPAFN-LTASG		16.2959
		0	12792.1	AFLSH-WTASG		23.1226
10866.7	12792.1			FNPIH-LTASG	26.4106	
		0	5090.5	LWYGH-LTASG		11.3746
		3079.62	0	GIPFF-MTTAS		3.509
		2476.66	8941.32	GTVRS-LITAS		12.3051
0	0			GVHFH-LITAS	0.09413	
12792.1	7815.03			TAPKL-LTASG	15.3454	
0	1283.43			RTGLY-LTASG	0.07615	
		762.325	4205.91	GMAQY-LTASG		7.443

More lines, now with the values behind:

Substance	Kobs (MMP-9; [4]) [M⁻¹ s⁻¹]	Kobs (MMP-2 [2]; [5]) [M⁻¹ s⁻¹]	Kobs (MMP-9; [7]) [M⁻¹ s⁻¹]	Kobs (MMP-2 [2]; [8]) [M⁻¹ s⁻¹]	relative probability (RP) (MMP-2 [1]; [3])	relative probability (RP) (MMP-2 [1]; [6])
GRVEL-LYTAS			0	0		0
PKWHG-LTASG	619.843	355.093			0.5588	
GLPLN-WRTAS			3964.21	2545.25		28.8158
GLAWG-LYTAS			2409.72	2916.17		17.7408
ERVWA-ITASG	3438.54	1239.69			3.219	
SGPLG-IRYTA	7815.03	9740.44			33.936	
GGSGH-LLGMS	690.17	2097.28			1.458	
SGQRG-IYATA	3344.37	2157.02			7.484	
GYPWA-WRTAS	4922.1	1327.88			10.3227	
GGSGS-LVLRL			1030.73	1196.62		7.225
SGPVH-LLNTA	2280.5	3344.37			32.2352	
TKMAW-LTASG	1513.13	7015.91			31.5866	
GYPWS-LSTAS	7015.91	2218.08			28.5684	
FDAQS-LTASG	874.197	1711.63			18.365	
HRHAH-LTASG	0	7015.91			20.0775	
VPPEA-ITASG			12792.1	12792.1		22.5231
SGGSG-LRVLK	355.093	654.784			1.9698	
VSSYW-LTASG			1981.53	951.362		0.9791
LPYFS-MTASG			1660.66	386.839		0.06612
GVYGA-LRTAS	142.481	12792.1			28.8499	
PCHLA-LTASG	619.843	1327.88			11.3603	
GTLAA-MSTAS			0	4205.91		30.6825

Substance	Kobs (MMP-9; [4]) [M⁻¹ s⁻¹]	Kobs (MMP-2 [2]; [5]) [M⁻¹ s⁻¹]	Kobs (MMP-9; [7]) [M⁻¹ s⁻¹]	Kobs (MMP-2 [2]; [8]) [M⁻¹ s⁻¹]	relative probability (RP) (MMP-2 [1]; [3])	relative probability (RP) (MMP-2 [1]; [6])
EVARA-MTASG	5090.5	7015.91			25.2992	
GAPRS-LQTAS	12792.1	12792.1			33.3704	
GEFAA-LQTAS			323.705	2615.58		18.8584
GEVRF-LRTAS	2837.92	9740.44			15.0438	
AVANS-LTASG	1465.65	7386.83			10.0738	
GRLGN-LWTAS	0	5667.28			33.3542	
HAPRG-STASG	7386.83	7015.91			16.3331	
VIYGN-LTASG	0	8941.32			24.0019	
VVYRG-LTASG			2476.66	2761.81		5.445
NHVWP-LTASG	726.013	1154.21			5.294	
EMYGN-MTASG			451.441	5667.28		13.8836
RTASH-LTASG	84.609	8321.48			19.8208	
MGMWH-LTASG			142.481	0		0.2013
SGPSG-MRVTA			6688.74	7386.83		32.7604
SGARN-LLWTA	4613.14	1660.66			24.6947	
RKPAP-WTASG	3253.29	8321.48			31.7353	
RGPYM-LTASG			12792.1	6688.74		24.9477
SGPFR-LNWTA			1373.05	0		16.3818
WLPRA-VTASG	12792.1	12792.1			28.3444	
ARIEY-LTASG	654.784	1816.46			5.366	
SGPSS-LFATA	12792.1	12792.1			35.4913	
